{"source": "patent US11684614B2", "about": "“Formulations of hydroxypyridonate actinide/lanthanide decorporation agents” (priority 2017, dated 2023)", "key": {"[1]": {"assay_type": "in vivo, Swiss-Webster mice", "from_the_text": "Formulated material was used in the single dose in vivo ADME characterization studies in Sprague Dawley rats and Swiss-Webster mice with 14C-labeled 3,4,3-L1(1,2-HOPO).\nPharmacokinetic parameters and disposition/biodistribution of 3,4,3-L1(1,2-HOPO) were characterized in vivo (with the aid of two 14C labels on the spermine backbone of the parent product) in two non-GLP studies using Swiss-Webster mice and Sprague Dawley rats. The study designs for these two studies are shown in TABLE 5.1 and TABLE 5.2, respectively. Groups of six mice (3 male, 3 female) were given a single dose of [14C]-3,4,3-L1(1,2-HOPO) via iv, ip, or po routes, respectively. An additional group of six mice (3 male, 3 female) were administered the 14C-labeled API with permeability enhancer (10% sodium oleate) by oral gavage (po). Similarly, groups of six rats (3 male, 3 female) were administered a single iv dose of the 14C-labeled API or a single po dose of the 14C-labeled API with 10% sodium oleate. In each of these studies, samples were collected at scheduled time points up to 24 hr post-dose and analyzed for 14C content using liquid scintillation counting. Blood, liver, kidney, feces and urine were collected and analyzed from the mice. Blood, brain, liver, kidney, lungs, spleen, skeletal muscle tissues, gastrointestinal (GI) tract samples, carcasses, feces, and urine were collected and analyzed from the rats."}, "[2]": {"assay": "Plasma protein binding, rat", "assay_type": "in vitro ADME", "conditions": "tested at 10 μg/ml", "procedure": "(§1) Plasma protein binding differed across species; it was greatest in dog (95%), intermediate in human (29%), and lowest in rat (5%) when tested at 10 μg/ml."}, "[3]": {"assay": "Single oral dose GLP safety (toxicology) study in beagle dogs", "assay_type": "in vivo", "procedure": "The clinical formulation was tested in a single dose GLP toxicology and cardiovascular safety pharmacology study in beagle dogs.\nBased on this study, the MTD in dogs after a single oral administration is considered to be greater than 150 mg/kg."}, "Stability in plasma": {"assay": "Stability in plasma", "assay_type": "in vitro ADME"}, "[4]": {"assay": "Plasma protein binding, dog", "assay_type": "in vitro ADME", "conditions": "tested at 10 μg/ml", "procedure": "as §1"}, "[5]": {"assay": "Non-GLP 7-day repeat dose studies in beagle dogs, pharmacokinetics incl. iv group (SRI No. B677-13, M835-11)", "assay_type": "in vivo", "from_the_text": "These two pilot studies included an iv administration group so that oral bioavailability could be calculated. The oral bioavailability was low at <3% and essentially the same in both studies regardless of whether the dogs received formulated capsules or 3,4,3-L1(1,2-HOPO) dissolved in PBS without sodium oleate. […] Volume of distribution was 0.3 L/kg, consistent with drug that is distributed primarily to the extracellular space."}, "CYP2B6": {"target": "T1, CYP2B6 (Homo sapiens, UniProt P20813)", "T1 sequence (P20813 1-491)": "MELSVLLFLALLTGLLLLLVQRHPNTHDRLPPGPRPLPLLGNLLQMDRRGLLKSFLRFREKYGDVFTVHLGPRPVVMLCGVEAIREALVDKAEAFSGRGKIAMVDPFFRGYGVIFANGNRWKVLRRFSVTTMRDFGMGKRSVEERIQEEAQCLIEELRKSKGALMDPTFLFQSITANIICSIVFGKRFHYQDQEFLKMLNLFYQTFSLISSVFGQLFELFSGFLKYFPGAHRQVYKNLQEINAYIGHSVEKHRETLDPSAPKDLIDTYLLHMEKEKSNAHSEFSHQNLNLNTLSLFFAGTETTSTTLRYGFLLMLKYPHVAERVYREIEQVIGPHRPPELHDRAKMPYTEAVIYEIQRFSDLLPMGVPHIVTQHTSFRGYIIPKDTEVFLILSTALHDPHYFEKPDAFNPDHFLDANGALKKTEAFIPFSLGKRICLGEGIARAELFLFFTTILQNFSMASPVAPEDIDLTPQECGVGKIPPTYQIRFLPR", "assay": "CYP inhibition", "assay_type": "in vitro ADME"}, "[6]": {"assay": "Prototype oral formulation preparation and physico-chemical characterization (Example 2)", "assay_type": "physicochemical", "conditions": "powder in bottle compositions", "procedure": "Suitable formulation methodologies such as direct compression, dry compaction, and/or wet granulation processes were evaluated.\nPowder in bottle (PIB) is one of the most convenient dosage form used in early stage clinical development because of its ease of use. In comparison with capsules, PIB can carry large dose and fill weights. […] The reason for evaluating each composition is also described. […] TABLE 2.14 describes the corresponding properties of the evaluated formulations.\nTABLE 2.16 describes the corresponding properties of the evaluated formulations.\nChewable tablets are formulated for use in the mouth. They are usually uncoated, and are formulated to provide a release and absorption of the active ingredient(s) in the mouth/buccal cavity or from stomach. […] TABLE 2.18 describes the corresponding properties of the evaluated formulations.\nVarious compositions and processes (Direct compression & Wet granulation) were evaluated to formulate conventional tablets with 1000, 750 and/or 500 mg drug load. […]"}, "[7]": {"conditions": "po, female mice, formulated with sodium oleate"}, "[8]": {"conditions": "po, female mice, without sodium oleate"}, "[9]": {"conditions": "po, male mice, formulated with sodium oleate"}, "[10]": {"conditions": "po, male mice, without sodium oleate"}, "[11]": {"conditions": "Day 15, the one high-dose female with renal findings"}}, "note": "Where two headings read alike, the source gives them in different places."}
{"smiles": "O=C(NCCCN(CCCCN(CCCNC(=O)c1cccc(=O)n1O)C(=O)c1cccc(=O)n1O)C(=O)c1cccc(=O)n1O)c1cccc(=O)n1O", "note": "[3,4,3-L1(1,2-HOPO)]", "values": [{"measurement": "oral bioavailability (F) of radioactive compound", "setting": "[1]; female mice", "result": 2.6, "unit": "%"}, {"measurement": "oral bioavailability (F) of radioactive compound", "setting": "[1]; male mice", "result": 1.2, "unit": "%"}, {"measurement": "enhancement of exposure parameters with sodium oleate", "setting": "[1]; mice", "result": "2- to 3 fold"}, {"measurement": "oral bioavailability improvement with sodium oleate", "setting": "[1]; mice", "result": "about 2 fold"}, {"measurement": "Tmax", "setting": "[1]; oral dose, rodents (mice)", "result": "~42", "unit": "min"}, {"measurement": "AUC calculated over 2 hr posttreatment", "setting": "[1]; [7]", "result": "35.1±18.9", "unit": "min Pg-eq/ml"}, {"measurement": "Cmax", "setting": "[1]; [7]", "result": 1.4, "unit": "Pg-eq/ml"}, {"measurement": "AUC calculated over 2 hr posttreatment", "setting": "[1]; [8]", "result": "23.0±15.4", "unit": "min Pg-eq/ml"}, {"measurement": "Cmax", "setting": "[1]; [8]", "result": 0.55, "unit": "Pg-eq/ml"}, {"measurement": "AUC calculated over 2 hr posttreatment", "setting": "[1]; [9]", "result": "17.4±6.7", "unit": "min Pg-eq/ml"}, {"measurement": "Cmax", "setting": "[1]; [9]", "result": 0.93, "unit": "Pg-eq/ml"}, {"measurement": "AUC calculated over 2 hr posttreatment", "setting": "[1]; [10]", "result": "8.3±6.2", "unit": "min Pg-eq/ml"}, {"measurement": "Cmax", "setting": "[1]; [10]", "result": 0.32, "unit": "Pg-eq/ml"}, {"measurement": "Cmax improvement with sodium oleate", "setting": "[1]; po, mice", "result": "approximately 3 fold"}, {"measurement": "Plasma protein binding", "setting": "[2]", "result": 5, "unit": "%"}, {"measurement": "time of slight to moderate emesis post-dose", "setting": "[3]; 3,4,3-L1(1,2-HOPO) treatment groups", "result": "< 2", "unit": "h"}, {"measurement": "changes in body weight, food consumption, ophthalmology, cardiovascular assessments, clinical pathology, urinalysis, gross necropsy observations, or organ weights", "setting": "[3]; 37.5, 75, or 150 mg/kg", "result": "no meaningful changes"}, {"measurement": "increase in BUN relative to pre-test", "setting": "[3]; [11]", "result": 1.8, "unit": "fold"}, {"measurement": "increase in CR relative to pre-test", "setting": "[3]; [11]", "result": 1.3, "unit": "fold"}, {"measurement": "serum iron, unsaturated iron binding capacity, total iron binding capacity, magnesium, and ferritin", "setting": "[3]; Days 2 or 15, treated groups compared with controls", "result": "none of these parameters were meaningfully altered"}, {"measurement": "Post-dose emesis", "setting": "[3]; high dose group", "result": "3 dogs out of 12 dogs per group"}, {"measurement": "Extreme diarrhea, incidence", "setting": "[3]; high-dose (150 mg/kg) males, Day 1", "result": 33, "unit": "%"}, {"measurement": "Slight diarrhea, incidence", "setting": "[3]; high-dose group (150 mg/kg) females, Day 1", "result": 33, "unit": "%"}, {"measurement": "Slight diarrhea, incidence", "setting": "[3]; high-dose group (150 mg/kg) males, Day 1", "result": 17, "unit": "%"}, {"measurement": "Renal findings (tubular casts and dilation, interstitial hemorrhage, hemosiderin pigmentation), incidence", "setting": "[3]; high-dose group (150 mg/kg), Day 15 recovery sacrifice", "result": "1 of 3"}, {"measurement": "Post-dose emesis", "setting": "[3]; low dose group", "result": "1 dogs out of 12 dogs per group"}, {"measurement": "Diarrhea", "setting": "[3]; low-dose group (37.5 mg/kg)", "result": "absent"}, {"measurement": "Post-dose emesis", "setting": "[3]; mid dose group", "result": "2 dogs out of 12 dogs per group"}, {"measurement": "Slight diarrhea, incidence", "setting": "[3]; mid-dose group (75 mg/kg) females, Day 1", "result": 67, "unit": "%"}, {"measurement": "MTD", "setting": "[3]; single oral administration, dogs", "result": "greater than 150 mg/kg"}, {"measurement": "stability in plasma", "setting": "Stability in plasma", "result": "stable"}, {"measurement": "Plasma protein binding", "setting": "[4]", "result": 95, "unit": "%"}, {"measurement": "accumulation in the plasma", "setting": "[5]; after 7 days of dosing", "result": "did not accumulate in the plasma"}, {"measurement": "oral bioavailability", "setting": "[5]; formulated capsules or API in PBS without sodium oleate", "result": "< 3", "unit": "%"}, {"measurement": "Volume of distribution", "setting": "[5]; iv 37.6 mg/kg (50 μmol/kg)", "result": 0.3, "unit": "L/kg"}, {"measurement": "clearance (Cl)", "setting": "[5]; iv 37.6 mg/kg (50 μmol/kg)", "result": 9.9, "unit": "mL/min/kg"}, {"measurement": "mean AUCinf", "setting": "[5]; iv 37.6 mg/kg (50 μmol/kg)", "result": 64000, "unit": "ng·h/mL"}, {"measurement": "observed peak plasma level", "setting": "[5]; iv 37.6 mg/kg (50 μmol/kg)", "result": "115 ± 11", "unit": "µg/mL"}, {"measurement": "t½", "setting": "[5]; iv 37.6 mg/kg (50 μmol/kg)", "result": 24, "unit": "min"}, {"measurement": "inhibition of CYP2B6 activity", "setting": "CYP2B6", "result": "did not inhibit"}, {"measurement": "behavior when reconstituted in water", "setting": "[6]", "result": "formed a sticky mass"}]}
